Laboratory results reported in ChEMBL document CHEMBL1137250, “Novel 6-O-acylated vitamin C derivatives as hyaluronidase inhibitors with selectivity for bacterial lyases” (Bioorg Med Chem Lett, 2006).
Active and inactive are the calls of the source. The calls are words filed in the database; no cut-off is given here.

Experiments:
[1] = Inhibition of Streptococcus agalactiae 4755 hyaluronidase at pH 5.0
[2] = species on record: Bos taurus; assay: Inhibition of bovine hyaluronidase at 1430 uM
[3] = species on record: Bos taurus; assay: (§1) Inhibition of bovine hyaluronidase at pH 5.0
[4] = as §1; parameters: species or system Bos taurus
[5] = tested on: Streptococcus agalactiae; assay: Inhibition of Streptococcus agalactiae 4755 hyaluronidase upto 13 mM at pH 5.0
[6] = species on record: Bos taurus; assay: Inhibition of bovine hyaluronidase up to 13 mM at pH 5.0
[7] = species on record: Bos taurus; assay: Inhibition of bovine hyaluronidase up to 200 uM at pH 5.0
[8] = tested on: Streptococcus agalactiae; assay: Inhibition of Streptococcus agalactiae 4755 hyaluronidase upto 200 uM at pH 5.0
[9] = species on record: Bos taurus; assay: Inhibition of bovine hyaluronidase up to 1.1 mM at pH 5.0
[10] = tested on: Streptococcus agalactiae; assay: Inhibition of Streptococcus agalactiae 4755 hyaluronidase at 1100 uM at pH 5.0
[11] = tested on: Streptococcus agalactiae; assay: Inhibition of Streptococcus agalactiae 4755 hyaluronidase at 2000 uM at pH 5.0
[12] = tested on: Streptococcus agalactiae; assay: Inhibition of Streptococcus agalactiae 4755 hyaluronidase at 160 uM at pH 5.0
[13] = species on record: Bos taurus; assay: Inhibition of bovine hyaluronidase up to 100 mM at pH 5.0
[14] = Inhibition of Streptococcus pneumoniae hyaluronidase
[15] = tested on: Streptococcus agalactiae; assay: Inhibition of Streptococcus agalactiae 4755 hyaluronidase at 190 uM at pH 5.0

Row | IC50 [1] | IC50 [4] | Compound | further results
1 | 475 µM |  | CCCCCC(=O)OC[C@H](O)[C@H]1OC(=O)C(O)=C1O | Activity [3]: inactive
2 | 4.2 µM | 57 µM | CCCCCCCCCCCCCCCC(=O)OC[C@H](O)[C@H]1OC(=O)C(O)=C1O [ASCORBYL PALMITATE] | 
3 | 102 µM | 1380 µM | CCCCCCCCCC(=O)OC[C@H](O)[C@H]1OC(=O)C(O)=C1O | 
4 | 772 µM |  | CCCCCCCC(=O)OC[C@H](O)[C@H]1OC(=O)C(O)=C1O | Activity [3]: inactive
5 | 7.5 µM | 37 µM | O=C(CCCCCCCCCCOc1ccc(-c2ccccc2)cc1)OC[C@H](O)[C@H]1OC(=O)C(O)=C1O | 
6 | 14.3 µM | 96 µM | CCCCCCCCCCCCC(=O)OC[C@H](O)[C@H]1OC(=O)C(O)=C1O | 
7 | 31 µM | 105 µM | O=C(CCCCCCCCCCOc1ccccc1)OC[C@H](O)[C@H]1OC(=O)C(O)=C1O | 
8 | 72 µM | 580 µM | CCCCCCCCCCC(=O)OC[C@H](O)[C@H]1OC(=O)C(O)=C1O | 
9 | 8.4 µM | 71 µM | CCCCCCCCCCCCCC(=O)OC[C@H](O)[C@H]1OC(=O)C(O)=C1O | 
10 | 47 µM | 208 µM | CCCCCCCCCCCC(=O)OC[C@H](O)[C@H]1OC(=O)C(O)=C1O | 
11 | 0.9 µM | 39 µM | CCCCCCCCCCCCCCCCCC(=O)OC[C@H](O)[C@H]1OC(=O)C(O)=C1O [ASCORBYL STEARATE] | 

The remaining lines, values behind:

Row | Compound | IC50 [1] | IC50 [4] | further results
12 | O=C1O[C@H]([C@@H](O)COC(=O)c2ccccc2)C(O)=C1O | 132 µM |  | inhibition [2]: 33%
13 | COC1=C(OC)[C@@H]([C@@H](O)CO)OC1=O |  |  | Activity [5]: inactive; Activity [6]: inactive
14 | O=C(CCCCCOc1ccc(-c2ccccc2)cc1)OC[C@H](O)[C@H]1OC(=O)C(O)=C1O | 61 µM | 188 µM | 
15 | O=C(CCCCCOc1ccc(OCc2ccccc2)cc1)OC[C@H](O)[C@H]1OC(=O)C(O)=C1O | 76 µM | 210 µM | 
16 | CCc1ccc(OCCCCCC(=O)OC[C@H](O)[C@H]2OC(=O)C(O)=C2O)cc1 | 280 µM |  | Activity [3]: inactive
17 | CCCCCCCCCCCCCCCC(=O)OC[C@H](O)[C@H]1OC(=O)C(OCc2ccccc2)=C1OCc1ccccc1 |  |  | Activity [7]: inactive; Activity [8]: inactive
18 | CC(C)(C)C(=O)OC[C@H](O)[C@H]1OC(=O)C(O)=C1O |  |  | Activity [9]: inactive; inhibition [10]: 43%
19 | O=C(CCCCCOCc1ccc(-c2ccccc2)cc1)OC[C@H](O)[C@H]1OC(=O)C(O)=C1O | 102 µM | 543 µM | 
20 | O=C1O[C@H]([C@@H](O)CO)C2=C1OCCO2 |  |  | Activity [6]: inactive; inhibition [11]: 24%
21 | CCCCCCCCCCCCCCCC(=O)OC[C@H](O)[C@H]1OC(=O)C(OC)=C1OC |  |  | Activity [7]: inactive; inhibition [12]: 5%
22 | O=C1O[C@H]([C@@H](O)CO)C(O)=C1O [ASCORBIC ACID] | 6100 µM |  | Activity [13]: inactive; IC50 [14]: 5800 µM
23 | O=C(CCCCCOCc1ccccc1)OC[C@H](O)[C@H]1OC(=O)C(O)=C1O | 437 µM |  | Activity [3]: inactive
24 | CCCCCCCCCCCCCCCC(=O)OC[C@H](O)[C@H]1OC(=O)C2=C1OCCO2 |  |  | Activity [7]: inactive; inhibition [15]: 32%
25 | O=C(CCCCCOc1ccccc1)OC[C@H](O)[C@H]1OC(=O)C(O)=C1O | 717 µM |  | Activity [3]: inactive
26 | O=C1O[C@H]([C@@H](O)CO)C(OCc2ccccc2)=C1OCc1ccccc1 | 355 µM |  | Activity [6]: inactive
27 | O=C(Cc1ccc(-c2ccccc2)cc1)OC[C@H](O)[C@H]1OC(=O)C(O)=C1O | 358 µM | 2010 µM | 
